The format of data set [1] is in vivo. An excerpt:
Since July 2005 369 cases of MBC were identified from the Swedish Cancer Register and each case was matched to five controls (n=[…]) from the general population of the same age and domicile. Medicines with documented side effects of hormonal imbalance or gynecomastia were collected from the Prescribed Drug Register in operation since July 2005. Drug exposure was followed both for cases and controls until the cancer diagnosis or death of the case. Cases and controls with a diagnosis of prostate cancer were excluded. The data were mainly analyzed with conditional logistic regression and Cox regression.
Cox regression and nested case-control analysis were used in analysis of the ever-use variable of any of the included medicines, after the exclusion phases (described below), as well as after the grouping phase and generated study design-specific hazard ratios (HR) and 95% confidence intervals (CI). P-values less than 0.05 were considered statistically significant. All processing of the data and statistical analysis was made using R programming for statistical computing and ended with the effectuation of conditional logistic regression, Cox regression and nested case-control. Using multiple statistical methods provided additional statistical certainty.
In this second line of statistical analysis, the match sets created by Statistics Sweden were kept, using the ID number of the case to connect the five matched controls to each case. All medical use after the time of diagnosis of the case was excluded, which applied also to the controls, meaning that the matched control's medical usage after the date of diagnosis of the case was censored using the predefined match sets. All subjects were classified as non-users until the date of the first prescription of one of the included medicines. […]
The first prescribed medicine for each individual with recorded medical use was selected, since this was likely to be the medicine each individual had used for the longest period of time. […]

For data set [2] the following is noted: except in skeletal muscle tissue; cited from earlier work.
For data set [3] the following is noted: prevention mainly limited to less severe prostate cancer; cited from earlier work.
The conditions of data set [4]: cited from earlier work.

Structures are written as SMILES.

On to `COc1cc2nc(N(C)CCCNC(=O)C3CCCO3)nc(N)c2cc1OC` (stereo not shown) [Alfuzosin], for which the “Association of medication use with risk of MBC (in words)” value in data set [1] is given as “significant correlation to increased risk of MBC”.
Consider `C[C@]12CCC(=O)C[C@@H]1CC[C@@H]1[C@@H]2CC[C@]2(C)[C@@H](O)CC[C@@H]12` [DHT, dihydrotestosterone], for which the “Potency relative to testosterone or other androgens” value in data set [2] is 3-5 times.
With `COc1cc2nc(N3CCN(C(=O)C4CCCO4)CC3)nc(N)c2cc1OC` (stereo not shown) [Terazosin], the “Association of medication use with risk of MBC (in words)” value in data set [1] was “significant correlation to increased risk of MBC”.
Turning to `C[C@]12C=CC(=O)N[C@@H]1CC[C@@H]1[C@@H]2CC[C@]2(C)[C@@H](C(=O)Nc3cc(C(F)(F)F)ccc3C(F)(F)F)CC[C@@H]12` [dutasteride, (5α,17β)-N-{2,5-Bis(trifluoromethyl)phenyl}-3-oxo-4-azaandrost-1-ene-17-carboxamide], in data set [1] (register study, 5-ARI users), the “Preventive effect on MBC (in words)” value is “preventive effect was strongest”. Further, in data set [3], the “Effect on prostate cancer (in words)” value was “a better prognosis has been shown”. The “Adverse effects in clinical studies” value in data set [4] (5 mg daily for 6 months, patients, compared with therapeutic dose 0.5 mg) is on record as “no additional adverse effects”. Also, the “Safety of single daily doses” value in data set [4] (up to 40 mg/day (80 times the therapeutic dose) for 7 days, healthy volunteers) was “without significant safety concerns”.

The values are drawn from patent publication US20190282590A1, “MEDICAMENT FOR TREATMENT AND/OR PROPHYLACTIC TREATMENT OF BREAST CANCER” (HAKMED AB, priority 2016, published 2019).
